Measurements taken from ChEMBL document CHEMBL1157410, “7-aryl 1,5-dihydro-benzo[e][1,4]oxazepin-2-ones and analogs as non-steroidal progesterone receptor antagonists” (Bioorg Med Chem, 2008).

Columns and labels:
Glucocorticoid receptor = biological target: T1, Glucocorticoid receptor (Homo sapiens, UniProt P04150); assay: Antagonist activity at cloned glucocorticoid receptor-ligand binding domain expressed in african green monkey COS7 cells by GAL4 luciferase reporter assay; assay type: cell-based, COS-7
T1 sequence (P04150 whole entry): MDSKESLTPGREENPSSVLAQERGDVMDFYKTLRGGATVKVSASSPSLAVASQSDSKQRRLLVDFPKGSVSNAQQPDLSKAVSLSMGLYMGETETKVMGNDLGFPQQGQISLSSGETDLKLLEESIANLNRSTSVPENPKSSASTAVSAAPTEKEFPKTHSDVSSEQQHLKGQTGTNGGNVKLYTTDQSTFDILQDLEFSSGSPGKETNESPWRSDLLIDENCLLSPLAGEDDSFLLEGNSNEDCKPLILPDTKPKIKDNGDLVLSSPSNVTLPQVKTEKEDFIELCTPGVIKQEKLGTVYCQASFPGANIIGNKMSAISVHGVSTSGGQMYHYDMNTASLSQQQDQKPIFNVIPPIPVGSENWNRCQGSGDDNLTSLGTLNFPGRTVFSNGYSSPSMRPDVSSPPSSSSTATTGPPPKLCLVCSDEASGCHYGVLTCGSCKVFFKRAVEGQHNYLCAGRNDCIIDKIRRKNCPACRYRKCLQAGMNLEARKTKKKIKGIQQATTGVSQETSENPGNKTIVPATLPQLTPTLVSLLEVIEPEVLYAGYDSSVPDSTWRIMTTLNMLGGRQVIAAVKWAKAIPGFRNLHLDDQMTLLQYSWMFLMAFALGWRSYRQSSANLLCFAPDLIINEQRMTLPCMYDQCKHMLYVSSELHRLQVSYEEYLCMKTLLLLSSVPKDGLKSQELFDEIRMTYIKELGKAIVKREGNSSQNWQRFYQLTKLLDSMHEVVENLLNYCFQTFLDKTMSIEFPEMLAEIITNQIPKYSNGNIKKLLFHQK

Androgen receptor = biological target: T2, Androgen receptor (Homo sapiens, UniProt P10275)
T2 sequence (P10275 whole entry): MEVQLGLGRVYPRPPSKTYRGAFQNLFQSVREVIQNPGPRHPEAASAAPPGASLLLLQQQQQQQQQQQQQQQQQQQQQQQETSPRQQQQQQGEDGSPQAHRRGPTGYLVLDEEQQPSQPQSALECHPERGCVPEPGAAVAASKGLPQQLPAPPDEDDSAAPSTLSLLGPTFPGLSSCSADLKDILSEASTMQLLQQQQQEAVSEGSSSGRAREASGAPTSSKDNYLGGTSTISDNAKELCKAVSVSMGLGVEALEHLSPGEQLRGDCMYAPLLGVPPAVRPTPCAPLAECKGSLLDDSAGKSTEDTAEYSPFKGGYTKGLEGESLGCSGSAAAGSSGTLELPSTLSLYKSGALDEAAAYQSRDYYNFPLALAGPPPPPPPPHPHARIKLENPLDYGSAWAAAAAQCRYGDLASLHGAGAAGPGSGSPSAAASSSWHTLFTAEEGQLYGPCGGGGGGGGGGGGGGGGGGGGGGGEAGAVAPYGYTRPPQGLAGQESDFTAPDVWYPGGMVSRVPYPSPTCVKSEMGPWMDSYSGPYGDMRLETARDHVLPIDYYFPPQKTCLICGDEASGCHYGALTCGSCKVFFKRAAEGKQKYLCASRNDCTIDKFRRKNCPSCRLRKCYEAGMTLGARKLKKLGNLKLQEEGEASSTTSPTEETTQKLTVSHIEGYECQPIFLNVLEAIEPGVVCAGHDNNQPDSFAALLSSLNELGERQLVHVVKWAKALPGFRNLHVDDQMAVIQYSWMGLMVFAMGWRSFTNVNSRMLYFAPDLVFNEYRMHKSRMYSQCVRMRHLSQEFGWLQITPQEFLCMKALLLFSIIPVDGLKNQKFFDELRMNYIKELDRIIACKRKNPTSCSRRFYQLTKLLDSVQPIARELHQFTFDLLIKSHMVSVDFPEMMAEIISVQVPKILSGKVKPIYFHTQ
Description: Antagonist activity at cloned androgen receptor-ligand binding domain expressed in african green monkey COS7 cells by two hybrid luciferase assay

Progesterone receptor = biological target: T3, Progesterone receptor (Homo sapiens, UniProt P06401); assay: Inhibition of progesterone receptor mediated progesterone-induced alkaline phosphatase activity in human T47D cells; assay type: cell-based
T3 sequence (P06401 whole entry): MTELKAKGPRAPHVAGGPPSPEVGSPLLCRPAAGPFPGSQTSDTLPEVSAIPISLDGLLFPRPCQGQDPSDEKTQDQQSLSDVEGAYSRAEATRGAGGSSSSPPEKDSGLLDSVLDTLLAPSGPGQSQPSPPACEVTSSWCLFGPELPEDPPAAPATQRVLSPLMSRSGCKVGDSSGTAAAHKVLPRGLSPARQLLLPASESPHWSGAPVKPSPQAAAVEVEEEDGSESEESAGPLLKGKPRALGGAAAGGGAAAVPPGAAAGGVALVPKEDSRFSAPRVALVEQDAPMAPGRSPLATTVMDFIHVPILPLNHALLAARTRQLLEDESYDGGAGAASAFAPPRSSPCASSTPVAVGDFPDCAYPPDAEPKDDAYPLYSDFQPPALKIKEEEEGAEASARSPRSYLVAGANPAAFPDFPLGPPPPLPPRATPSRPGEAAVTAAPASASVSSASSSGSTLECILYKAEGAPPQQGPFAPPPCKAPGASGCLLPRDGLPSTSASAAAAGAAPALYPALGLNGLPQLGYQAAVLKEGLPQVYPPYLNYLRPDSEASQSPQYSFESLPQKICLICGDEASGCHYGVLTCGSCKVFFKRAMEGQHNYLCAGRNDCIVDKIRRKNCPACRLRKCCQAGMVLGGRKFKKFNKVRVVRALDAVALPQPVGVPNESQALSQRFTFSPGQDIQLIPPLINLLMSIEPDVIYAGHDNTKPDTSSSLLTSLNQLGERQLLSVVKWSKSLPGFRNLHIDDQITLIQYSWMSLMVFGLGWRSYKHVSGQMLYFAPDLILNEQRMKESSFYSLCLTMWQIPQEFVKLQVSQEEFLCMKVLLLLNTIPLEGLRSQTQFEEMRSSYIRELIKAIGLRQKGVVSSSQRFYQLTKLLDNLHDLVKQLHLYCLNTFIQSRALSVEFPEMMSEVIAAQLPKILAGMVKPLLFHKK

Row | IC50 (Glucocorticoid receptor) [nM] | IC50 (Androgen receptor) [nM] | IC50 (Progesterone receptor) [nM] | SMILES
1 | 1300 | > 3000 | 13.3 | N#Cc1cc(F)cc(-c2ccc3c(c2)C(c2ccco2)(c2ccco2)OCC(=O)N3)c1
2 | > 3000 | > 3000 | 25 | CC1(C)OCC(=O)Nc2ccc(-c3cc(F)cc(C#N)c3)cc21

Row | SMILES | IC50 (Glucocorticoid receptor) [nM] | IC50 (Androgen receptor) [nM] | IC50 (Progesterone receptor) [nM]
3 | CCC1(c2ccco2)OCC(=O)Nc2ccc(-c3cc(F)cc(C#N)c3)cc21 (centres undefined) | 190 | 690 | 11.8
